#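 These data come from cells grown in 96-well plates and exposed to compound for 48 hours at five concentrations. Definition used: TGI = concentration required for complete inhibition of growth.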
# Tests used:
# Assay in all cases: inhibition of tumour cell growth, NCI panel, 48 h
# ACHN renal = tested on: ACHN renal
# COLO 205 colon = tested on: COLO 205 colon
# HCT-116 colon = tested on: HCT-116 colon
# HOP-62 NSCLC = tested on: HOP-62 NSCLC
# K-562 leukemia = tested on: K-562 leukemia
# KM12 colon = tested on: KM12 colon
# LOX IMVI melanoma = tested on: LOX IMVI melanoma
# SF-268 CNS = tested on: SF-268 CNS
# SK-MEL-28 melanoma = tested on: SK-MEL-28 melanoma
# MCF7 breast = tested on: MCF7 breast
SMILES,TGI (ACHN renal) [µM],TGI (COLO 205 colon) [µM],TGI (HCT-116 colon) [µM],TGI (HOP-62 NSCLC) [µM],TGI (K-562 leukemia) [µM],TGI (KM12 colon) [µM],TGI (LOX IMVI melanoma) [µM],TGI (SF-268 CNS) [µM],TGI (SK-MEL-28 melanoma) [µM],TGI (MCF7 breast) [µM]
O=C(CSc1nnc(-c2ccc(N=Cc3ccc(Cl)cc3)cc2)o1)Nc1cccc(Cl)c1,> 100,> 100,> 100,> 100,> 100,> 100,> 100,> 100,> 100,
CCCCCCCC/C=C/CCCCCCCC1CC(O)C(=O)O1 (stereo unspecified),> 100,> 100,> 100,> 100,> 100,,> 100,> 100,> 100,> 100
COc1cc2c(cc1O)C(C)Cc1cc3c(cc1N(C)CC2)OCO3 (stereo unspecified),74.1,> 58.8,> 35.2,36.8,> 27.9,17.8,18.1,36.2,45.8,
Cn1c(=O)c2nc(N3CCCCC3)cnc2n(C)c1=O,> 100,> 100,> 100,> 100,> 100,> 100,,> 100,> 100,
COc1cc(/C=C(\C#N)c2ccccn2)cc(Br)c1O,> 100,> 100,> 100,> 100,> 100,> 100,,> 100,> 100,> 100
CC(C)(O)[C@H](CCO)O[Si](c1ccccc1)(c1ccccc1)C(C)(C)C,19.7,29.6,17.6,,23.7,25.5,27.6,26.7,29,
COc1cc2c(cc1OC)C(Cc1c3ccccc3cc3ccccc13)N(C)CC2 (stereo unspecified),,29.7,40.3,48.7,39.3,35.9,41.2,> 100,46.8,33.7
C=C(C(=O)O)[C@@H]1C[C@@H]2O[C@H]1CC(C)=CCC/C(C)=C/CC[C@@]2(C)O,> 100,> 100,> 100,,> 100,> 100,> 100,> 100,> 100,> 100
CCNCCCCNCC,,> 3750,> 3750,> 3750,> 3750,> 3750,> 3750,> 3750,> 3750,> 3750
CN1CCN(c2ccc(-n3cc(C(=O)O)c(=O)c4cc(F)c(N5CCN(C)CC5)cc43)nc2)CC1,,> 100,> 100,> 100,> 100,> 100,> 100,> 100,> 100,> 100
COC(=O)NN1C(=O)C(=P(c2ccccc2)(c2ccccc2)c2ccccc2)C(C(=O)OC)=C1C,> 100,> 100,,,> 100,,> 100,> 100,> 100,
CCNCCNC(=O)c1ccc(Br)cc1,> 100,,,,> 100,> 100,> 100,> 100,> 100,> 100
